# In patent publication US20060008506A1, “Method for preparing therapeutic ophthalmic articles using compressed fluids” (priority 2004, published 2006):
# How the values were obtained:
# baboons = details: single dose of 125 mg/Kg; cited from earlier work
# [1] = analysis of preservation and storage media after three-month storage of impregnated Focus Dailies lenses; assay type: physicochemical; details: for effective total mass of Flurbiprofen impregnated in the article: sum of storage and release amounts; for mass of Flurbiprofen released in preservation and storage media: three-month storage in 0.9% NaCl
# Method: Afterwards, the two ophthalmic articles were stored and preserved in physiological serum (saline solution, 0.9% NaCl) in closed vessels, for three months. After this period, in vitro kinetic studies were carried out in respect of Flurbiprofen release, following the experimental procedures already described at Example 1.
# The maximum cumulative amount of released Flurbiprofen was about 0.007 mg for experiment I and about 0.035 mg for experiment II. These amounts were actually attained after 7 hours of release kinetic studies. […] However, in these cases it cannot be assumed that these values correspond to the total amount of Flurbiprofen impregnated in each ophthalmic article, given that part of the impregnated drug was released in the preservation medium during the three-month storage period. Preservation and storage media were also analyzed and the mass of Flurbiprofen released therein was about 0.0030 mg for experiment I and about 0.0025 mg for experiment II. Therefore, we can assume that the effective total mass of Flurbiprofen impregnated in the two articles was 0.0100 mg and 0.0375 mg respectively for experiments I and II.
# inflammatory processes = details: cited from earlier work
# [2] = in vitro sustained release kinetic study of impregnated Focus Monthly (Vifilcon A) hydrogel contact lens in physiological serum; assay type: physicochemical; details: 90.0 bar, 40.0° C.; for release time at which maximum cumulative amount was attained: 0.9% NaCl at 37° C.; for maximum cumulative amount of released Flurbiprofen: 30 min
# Method: A Focus® Monthly® (Ciba Vision, Ga., USA) hydrogel contact lens (ionic, high hydration, FDA Group IV, 55% water+45% Vifilcon A copolymer) was treated by means of the above-mentioned first embodiment of the process, in accordance with the invention and according to FIG. 1. The ophthalmic article was contacted in a sealed high pressure vessel with a mixture of compressed carbon Dioxide (99.998% purity, Air Liquid), Flurbiprofen (CAS[5104-49-4], 97% purity, Sigma-Aldrich) and Ethanol (CAS[64-17-5], 99.8% purity, Fluka), as co-solvent (5% molar in respect of carbon Dioxide). The operating conditions were 90.0 bar and 40.0° C. No stirring was employed. After a 30 minute processing time, the vessel was slowly expanded (for 1.5 minutes) and the compressed fluid (carbon Dioxide) was removed. Part of the co-solvent (Ethanol) was dragged out of the system by the Carbon Dioxide, while its remaining part precipitated, as a liquid, to the bottom of the high pressure vessel. The high pressure vessel was then removed from the temperature controlled bath, opened and the ophthalmic article was recovered, impregnated with Flurbiprofen. Later on, the impregnated ophthalmic article was placed in 5 ml of physiological serum (saline solution, 0.9% NaCl) inside a closed vessel. This vessel was subsequently placed inside a temperature controlled bath (at 37° C.), in order to carry out the in vitro sustained release kinetic study of the drug (Flurbiprofen). At regular time intervals (shorter time intervals at the beginning), 3 ml of the release solution (containing the released drug) were removed from the vessel and replaced by 3 ml of fresh physiological serum. The concentration of Flurbiprofen was determined by spectroscopy for each sample collected. A Focus® Monthly® (Ciba Vision, Ga., USA) hydrogel contact lens (ionic, high hydration, FDA Group IV, 55% water+45% Vifilcon A copolymer) was treated by means of the above-mentioned first embodiment of the process, in accordance with the invention and according to FIG. 1. The ophthalmic article was contacted in a sealed high pressure vessel with a mixture of Carbon Dioxide (99.998% purity, Air Liquide) and Flurbiprofen (CAS[5104-49-4], 97% purity, Sigma-Aldrich). No co-solvent was added. The operating conditions were 90.0 bar and 40.0° C. No stirring was employed. After a 30 minute processing time, the vessel was slowly expanded (for 15 minutes) and the compressed fluid (Carbon Dioxide) was removed. The high pressure vessel was then removed from the temperature controlled bath, opened and the ophthalmic article was recovered, impregnated with Flurbiprofen. The in vitro kinetic studies concerning the release of Flurbiprofen were conducted in accordance with the experimental procedures already described at Example 1.
# [3] = in vitro release kinetic study of impregnated Focus Dailies (Nelfilcon A) hydrogel contact lenses after three-month storage; assay type: physicochemical; details: for maximum cumulative amount of released Flurbiprofen: CO2, 41° C., after three months storage in 0.9% NaCl
# Method: Later on, the impregnated ophthalmic article was placed in 5 ml of physiological serum (saline solution, 0.9% NaCl) inside a closed vessel. This vessel was subsequently placed inside a temperature controlled bath (at 37° C.), in order to carry out the in vitro sustained release kinetic study of the drug (Flurbiprofen). At regular time intervals (shorter time intervals at the beginning), 3 ml of the release solution (containing the released drug) were removed from the vessel and replaced by 3 ml of fresh physiological serum. The concentration of Flurbiprofen was determined by spectroscopy for each sample collected. Two Focus® […]® (Ciba Vision, Ga., USA) hydrogel contact lenses (non ionic, high hydration, FDA Group II, 69% water+31% Nelfilcon A copolymer) were separately treated in two different experiments (I and II) by means of the above-mentioned third embodiment of the process, in accordance with the invention and according to FIG. 3. In both experiments, the ophthalmic articles processed were impregnated with Flurbiprofen (CAS[5104-49-4], 97% purity, Sigma-Aldrich) using Carbon Dioxide (99.998% purity, Air Liquide). No co-solvent was added and no stirring was employed. In experiment I, the operating conditions were 41° C. and 90 bar, while in experiment II the operating conditions were 41° C. and 120 bar. In both experiments, drug solubilization was carried out for 1 hour and 30 minutes, and impregnation was carried out for 1 hour. After impregnation, the vessel was slowly depressurized (for 15 minutes) and the compressed fluid (Carbon Dioxide) was removed. The high pressure vessel was then removed from the temperature controlled bath, opened and the ophthalmic article was recovered, impregnated with Flurbiprofen. Afterwards, the two ophthalmic articles were stored and preserved in physiological serum (saline solution, 0.9% NaCl) in closed vessels, for three months. After this period, in vitro kinetic studies were carried out in respect of Flurbiprofen release, following the experimental procedures already described at Example 1.
compound,measurement,setting,value
CC(C(=O)O)c1ccc(-c2ccccc2)c(F)c1 (stereo not shown) [Flurbiprofen],acute toxicity,baboons,no acute toxicity
same,effective total mass of Flurbiprofen impregnated in the article,"[1]; Example 3, experiment I (41° C., 90 bar)",0.0100 mg
same,mass of Flurbiprofen released in preservation and storage media,"[1]; Example 3, experiment I (90 bar)",about 0.0030 mg
same,effective total mass of Flurbiprofen impregnated in the article,"[1]; Example 3, experiment II (41° C., 120 bar)",0.0375 mg
same,mass of Flurbiprofen released in preservation and storage media,"[1]; Example 3, experiment II (120 bar)",about 0.0025 mg
same,minimum amount of Flurbiprofen to be kept in the eye to prevent inflammatory processes,inflammatory processes,0.03 to 0.15 µg
same,release time at which maximum cumulative amount was attained,[2]; Example 1: CO2 + ethanol co-solvent,24 h
same,maximum cumulative amount of released Flurbiprofen,"[2]; Example 1: Focus Monthly lens impregnated with CO2 + 5% molar ethanol co-solvent, release in 5 ml 0.9% NaCl at 37° C.",about 0.25 mg
same,release time at which maximum cumulative amount was attained,"[2]; Example 2: CO2, no co-solvent",6 h
same,maximum cumulative amount of released Flurbiprofen,"[2]; Example 2: Focus Monthly lens impregnated with CO2, no co-solvent, release in 0.9% NaCl at 37° C.",about 0.11 mg
same,maximum cumulative amount of released Flurbiprofen,"[3]; Example 3, experiment I: Focus Dailies lens, 90 bar",about 0.007 mg
same,maximum cumulative amount of released Flurbiprofen,"[3]; Example 3, experiment II: Focus Dailies lens, 120 bar",about 0.035 mg
same,release time at which maximum cumulative amounts were attained,"[3]; Example 3, experiments I and II",7 h
